The results in this text go back to patent US10752640B2, “Compounds active towards bromodomains” (NUEVOLUTION A/S, priority 2014, dated 2020).

The structures appear in SMILES notation.

The target in this experiment is BRD4 protein (Homo sapiens, UniProt O60885). As to the kind of experiment: FRET assay, half maximal inhibitory concentration (IC50). It counts as binding. The conditions noted are these: BRD4 protein 50 nM, Biotin-H4KAc4 peptide 12.5 nM; List of Classification. A digest of the protocol: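 Acetylated histone H4 peptide binding (biotin-H4KAc4, 12.5 nM final) to BRD4 (50 nM final) detected by TR-FRET between streptavidin cryptate (2.4 nM) and GST-XL665 antibody (10 nM) in KF/BSA. Buffer: HEPES pH 7.5, NaCl, CHAPS. Compound dilutions from 50 μM in 12.5% DMSO were preincubated with protein for 30 min. Variable-slope IC50.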
On to `Cc1cc(O)nc2ccc(NC(=O)c3cccnc3N3CCC(F)C3)cc12` (stereo not drawn) [Compound-132, 2-(3-fluoropyrrolidin-1-yl)-N-(2-hydroxy-4-methyl-6-quinolyl)pyridine-3-carboxamide], for which the IC50 – broadly, the concentration at which inhibition is half-maximal – was less than 200 nM.

The compound `Cc1cc(O)nc2ccc(NC(=O)c3cccnc3N3CCC(F)(F)C3)cc12` [Compound-133, 2-(3,3-difluoropyrrolidin-1-yl)-N-(2-hydroxy-4-methyl-6-quinolyl)pyridine-3-carboxamide] had an IC50 of less than 200 nM.

`Cc1cc(O)nc2ccc(NC(=O)c3ccc(C(F)(F)F)nc3N3CCCC3)cc12` [Compound-134, N-(2-hydroxy-4-methyl-6-quinolyl)-2-pyrrolidin-1-yl-6-(trifluoromethyl)pyridine-3-carboxamide]: the IC50 is less than 200 nM.

In turn, `Cc1cc(O)nc2ccc(NC(=O)c3ccc(C(F)(F)F)nc3N3CCOCC3)cc12` [Compound-135, N-(2-hydroxy-4-methyl-6-quinolyl)-2-morpholino-6-(trifluoromethyl)pyridine-3-carboxamide] showed a 50% inhibitory concentration (IC50) of 200 to 500 nM.

As to `Cc1cc(O)nc2c(C)cc(NC(=O)c3cccnc3N3CCOCC3)cc12` [Compound-136, N-(2-hydroxy-4,8-dimethyl-6-quinolyl)-2-morpholino-pyridine-3-carboxamide], the IC50 was less than 200 nM.

For `Cc1cc2nc(O)cc(C)c2cc1NC(=O)c1c(C)ccnc1N1CCOCC1` [Compound-137, N-(2-hydroxy-4,7-dimethyl-6-quinolyl)-4-methyl-2-morpholino-pyridine-3-carboxamide], the IC50 fell in the range of 1000 to 10000 nM.

Regarding `Cc1ccnc(N2CCOCC2)c1C(=O)Nc1ccc2nc(O)cc(C)c2c1` [Compound-138, N-(2-hydroxy-4-methyl-6-quinolyl)-4-methyl-2-morpholino-pyridine-3-carboxamide], the IC50 was 1000 to 10000 nM.

On to `Cc1cc(O)nc2ccc(NC(=O)c3cc(C(F)(F)F)cnc3N3CCOCC3)cc12` [Compound-139, N-(2-hydroxy-4-methyl-6-quinolyl)-2-morpholino-5-(trifluoromethyl)pyridine-3-carboxamide], for which the IC50 is less than 200 nM.

In turn, `Cc1cc(O)nc2ccc(NC(=O)c3cc(Cl)cnc3N3CCOCC3)cc12` [Compound-140, 5-chloro-N-(2-hydroxy-4-methyl-6-quinolyl)-2-morpholino-pyridine-3-carboxamide] had an IC50 of less than 200 nM.

`Cc1cc(O)nc2ccc(NC(=O)c3cccnc3N3CCOC4CNCC43)cc12` (stereo not drawn) [Compound-142, 2-(3,4a,5,6,7,7a-hexahydro-2H-pyrrolo[3,4-b][1,4]oxazin-4-yl)-N-(2-hydroxy-4-methyl-6-quinolyl)pyridine-3-carboxamide] had an IC50 of less than 200 nM.

In turn, `Cc1cc(O)nc2ccc(NC(=O)c3cccnc3N3CCOC4COCC43)cc12` (stereo not drawn) [Compound-143, 2-(2,3,4a,5,7,7a-hexahydrofuro[3,4-b][1,4]oxazin-4-yl)-N-(2-hydroxy-4-methyl-6-quinolyl)pyridine-3-carboxamide] registered an IC50 of 500 to 1000 nM.

For the compound `Cc1cc(O)nc2ccc(NC(=O)c3cccnc3N3C4CCC3COC4)cc12` [Compound-144, N-(2-hydroxy-4-methyl-6-quinolyl)-2-(3-oxa-8-azabicyclo[3.2.1]octan-8-yl)pyridine-3-carboxamide], the IC50 is less than 200 nM.

With `Cc1cc(O)nc2ccc(NC(=O)c3cccnc3N3CCOCC3CO)cc12` (stereo not drawn) [Compound-145, 2-[3-(hydroxymethyl)morpholin-4-yl]-N-(2-hydroxy-4-methyl-6-quinolyl)pyridine-3-carboxamide], the IC50 was less than 200 nM.

`Cc1cc(O)nc2ccc(NC(=O)c3cccnc3N3CCC(F)(F)CC3)cc12` [Compound-146, 2-(4,4-difluoro-1-piperidyl)-N-(2-hydroxy-4-methyl-6-quinolyl)pyridine-3-carboxamide] returned an IC50 of less than 200 nM.

For `Cc1cc(O)nc2ccc(NC(=O)c3cccnc3N3CCn4ccnc4C3)cc12` [Compound-147, 2-(6,8-dihydro-5H-imidazo[1,2-a]pyrazin-7-yl)-N-(2-hydroxy-4-methyl-6-quinolyl)pyridine-3-carboxamide], the half-inhibitory concentration (IC50) is 500 to 1000 nM.

The compound `COc1cc(O)nc2ccc(NC(=O)c3cccnc3N3CCOCC3)cc12` [Compound-149, N-(2-hydroxy-4-methoxy-6-quinolyl)-2-morpholino-pyridine-3-carboxamide] showed an IC50 of 500 to 1000 nM.

In turn, `Cc1cc(O)nc2ccc(NC(=O)c3cc(-c4cnoc4)ccc3N3CCOCC3)cc12` [Compound-151, N-(2-hydroxy-4-methyl-6-quinolyl)-5-isoxazol-4-yl-2-morpholino-benzamide] gave an IC50 of less than 200 nM.

In turn, `Cc1noc(C)c1-c1ccc(N2CCOCC2)c(C(=O)Nc2ccc3nc(O)cc(C)c3c2)c1` [Compound-152, 5-(3,5-dimethylisoxazol-4-yl)-N-(2-hydroxy-4-methyl-6-quinolyl)-2-morpholino-benzamide] showed an IC50 of less than 200 nM.

The compound `Cc1cc2nc(O)cc(C)c2cc1NC(=O)c1cc(-c2cnn(C)c2)ccc1N1CCOCC1` [Compound-154, N-(2-hydroxy-4,7-dimethyl-6-quinolyl)-5-(1-methylpyrazol-4-yl)-2-morpholino-benzamide] yielded an IC50 of less than 200 nM.

`Cc1cc2nc(O)cc(C)c2cc1NC(=O)c1cc(-c2c(C)noc2C)ccc1N1CCOCC1` [Compound-155, 5-(3,5-dimethylisoxazol-4-yl)-N-(2-hydroxy-4,7-dimethyl-6-quinolyl)-2-morpholino-benzamide]: the IC50 was less than 200 nM.

`Cc1cc(O)nc2c(C)cc(NC(=O)c3cc(-c4ccoc4)ccc3N3CCOCC3)cc12` [Compound-157, 5-(3-furyl)-N-(2-hydroxy-4,8-dimethyl-6-quinolyl)-2-morpholino-benzamide] returned an IC50 of less than 200 nM.

`COc1cc2nc(O)cc(C)c2cc1NC(=O)c1cc(-c2cnn(C)c2)ccc1N1CCOCC1` [Compound-159, N-(2-hydroxy-7-methoxy-4-methyl-6-quinolyl)-5-(1-methylpyrazol-4-yl)-2-morpholino-benzamide] yielded an IC50 of less than 200 nM.

Consider `COc1cc2nc(O)cc(C)c2cc1NC(=O)c1cc(-c2ccoc2)ccc1N1CCOCC1` [Compound-160, 5-(3-furyl)-N-(2-hydroxy-7-methoxy-4-methyl-6-quinolyl)-2-morpholino-benzamide], for which the IC50 was 500 to 1000 nM.

Take `COc1cc2nc(O)cc(C)c2cc1NC(=O)c1cc(-c2c(C)noc2C)ccc1N1CCOCC1` [Compound-161, 5-(3,5-dimethylisoxazol-4-yl)-N-(2-hydroxy-7-methoxy-4-methyl-6-quinolyl)-2-morpholino-benzamide]: the IC50 is less than 200 nM.

The compound `Cc1cc2nc(O)cc(C)c2cc1NC(=O)c1cc(-c2cnoc2)ccc1N1CCOCC1` [Compound-163, N-(2-hydroxy-4,7-dimethyl-6-quinolyl)-5-isoxazol-4-yl-2-morpholino-benzamide] had an IC50 of less than 200 nM.

Compound `Cc1cc2[nH]c(=O)cc(C)c2cc1NC(=O)c1cc(C#N)ncc1N1CCOCC1` [Compound-164, 2-cyano-N-(4,7-dimethyl-2-oxo-1H-quinolin-6-yl)-5-morpholino-pyridine-4-carboxamide] displayed an IC50 of less than 200 nM.

`CC(C)c1cc(O)nc2ccc(NC(=O)c3cc(S(=O)(=O)N(C)C)ccc3N3CCCC3)cc12` [Compound-165, 5-(dimethylsulfamoyl)-N-(2-hydroxy-4-isopropyl-6-quinolyl)-2-pyrrolidin-1-yl-benzamide] came in with an IC50 of less than 200 nM.

Consider `Cc1cc(O)nc2ccc(NC(=O)c3cc(-c4cnn(C)c4)ccc3N3CCOCC3)cc12` [Compound-166, N-(2-hydroxy-4-methyl-6-quinolyl)-5-(1-methylpyrazol-4-yl)-2-morpholino-benzamide], for which the IC50 is less than 200 nM.

As for `Cc1cc(O)nc2ccc(NC(=O)c3cc(-c4ccoc4)ccc3N3CCOCC3)cc12` [Compound-167, 5-(3-furyl)-N-(2-hydroxy-4-methyl-6-quinolyl)-2-morpholino-benzamide], the IC50 was less than 200 nM.

`Cc1cc(O)nc2ccc(NC(=O)c3cc(C(C)O)ccc3N3CCOCC3)cc12` (stereo not drawn) [Compound-168, N-(2-hydroxy-4-methylquinolin-6-yl)-5-(1-hydroxyethyl)-2-morpholinobenzamide]: the IC50 was less than 200 nM.

Compound `COc1cc(NC(=O)c2cc(-c3cnn(C)c3)cnc2N2CCOCC2)cc2c(C)cc(O)nc12` [Compound-169, N-(2-hydroxy-8-methoxy-4-methylquinolin-6-yl)-5-(1-methyl-1H-pyrazol-4-yl)-2-morpholinonicotinamide] gave an IC50 of less than 200 nM.

`COc1cc2nc(O)cc(C)c2cc1NC(=O)c1cc(-c2cnn(C)c2)cnc1N1CCOCC1` [Compound-170, N-(2-hydroxy-7-methoxy-4-methylquinolin-6-yl)-5-(1-methyl-1H-pyrazol-4-yl)-2-morpholinonicotinamide] showed an IC50 of less than 200 nM.

Consider `Cc1cc2nc(O)cc(C)c2cc1NC(=O)c1cc(-c2cnn(C)c2)cnc1N1CCOCC1` [Compound-171, N-(2-hydroxy-4,7-dimethylquinolin-6-yl)-5-(1-methyl-1H-pyrazol-4-yl)-2-morpholinonicotinamide], for which the 50% inhibitory concentration (IC50) was less than 200 nM.

As to `Cc1cc(=O)[nH]c2ccc(NC(=O)c3cc(S(=O)(=O)N(C)C)ccc3N3CC[C@@H](F)C3)cc12` [Compound-172, (R)-5-(N,N-dimethylsulfamoyl)-2-(3-fluoropyrrolidin-1-yl)-N-(4-methyl-2-oxo-1,2-dihydroquinolin-6-yl)benzamide], the IC50 is less than 200 nM.

`Cc1cc(=O)[nH]c2ccc(NC(=O)c3cc(S(=O)(=O)N(C)C)ccc3N3CC[C@H](F)C3)cc12` [Compound-173, (S)-5-(N,N-dimethylsulfamoyl)-2-(3-fluoropyrrolidin-1-yl)-N-(4-methyl-2-oxo-1,2-dihydroquinolin-6-yl)benzamide] gave an IC50 of less than 200 nM.

The compound `Cc1cc(O)nc2ccc(NC(=O)c3cc(-c4ccoc4)cnc3N3CCOCC3)cc12` [Compound-174, 5-(furan-3-yl)-N-(2-hydroxy-4-methylquinolin-6-yl)-2-morpholinonicotinamide] gave an IC50 of 500 to 1000 nM.
